Experimental data taken from PMC6934184, “Selective DNA-PKcs inhibition extends the therapeutic index of localized radiotherapy and chemotherapy” (The Journal of Clinical Investigation, 2019).

Biological target: T1, MAP2K2 (MEK2) (Homo sapiens, UniProt P36507)
T1 construct: purchased Thermo Fisher Scientific (Life Technologies) SelectScreen
Test: SelectScreen Z'LYTE
Format: biochemical
Details: ATP 100 µM
Procedure, shortened: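 Percent values come from Thermo SelectScreen profiling of NU5455, combining activity and binding assays. CSF1R was run in Z'LYTE format at Km app ATP, and CAMK1 in Adapta format with ATP listed at 10.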

T1 sequence (P36507 whole entry): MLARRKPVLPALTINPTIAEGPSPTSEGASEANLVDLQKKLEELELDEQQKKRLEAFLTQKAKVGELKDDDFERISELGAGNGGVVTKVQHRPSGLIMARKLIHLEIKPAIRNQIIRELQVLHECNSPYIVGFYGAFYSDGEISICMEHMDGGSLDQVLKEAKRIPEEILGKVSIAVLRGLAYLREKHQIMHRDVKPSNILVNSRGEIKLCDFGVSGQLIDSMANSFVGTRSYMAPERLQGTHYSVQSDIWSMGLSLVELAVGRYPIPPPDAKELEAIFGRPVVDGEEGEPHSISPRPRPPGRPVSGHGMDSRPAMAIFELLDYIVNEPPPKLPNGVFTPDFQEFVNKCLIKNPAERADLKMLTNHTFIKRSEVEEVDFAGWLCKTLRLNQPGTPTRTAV

**Q.** How did the inhibition at 1 µM turn out when `CN(C(=O)CN1CCOCC1)c1ccc2sc3c(-c4cccc5c(=O)cc(N6CC7CCC(C6)O7)oc45)cccc3c2c1` [NU5455] was run?
**A.** 3.9%
